From ChEMBL document CHEMBL1201862, “PubChem BioAssay data set” (2004)
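Briefly, cells in 96-well plates were exposed to five compound concentrations for 48 h, and endpoints were estimated by linear interpolation. Here, GI50 denotes the concentration required for 50% inhibition of growth.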 The source made the active and inactive calls. Cut-off read from the data, not from the text of the source: active = GI50 up to about 1.1 µM and inactive = higher.

Key:
Assay in all cases: DTP human tumour cell line panel, 48 h
NCI-H522 = test system: NCI-H522
A498 = test system: A498
UACC-62 = test system: UACC-62
HOP-62 = test system: HOP-62
NCI-H460 = test system: NCI-H460
CAKI-1 = test system: CAKI-1
BT-549 = test system: BT-549
IGROV-1 = test system: IGROV-1
NCI-H23 = test system: NCI-H23
K562 = test system: K562
LOX IMVI = test system: LOX IMVI
MDA-N = test system: MDA-N
SF-295 = test system: SF-295
SK-MEL-5 = test system: SK-MEL-5
DU-145 = test system: DU-145
HOP-92 = test system: HOP-92
TK-10 = test system: TK-10
U-251 = test system: U-251
MOLT-4 = test system: MOLT-4
RPMI-8226 = test system: RPMI-8226
COLO 205 = test system: COLO 205
SW-620 = test system: SW-620
786-0 = test system: 786-0
SF-268 = test system: SF-268
KM12 = test system: KM12
NCI/ADR-RES = test system: NCI/ADR-RES
NCI-H226 = test system: NCI-H226
MDA-MB-231 = test system: MDA-MB-231
UACC-257 = test system: UACC-257
Hs-578T = test system: Hs-578T
ACHN = test system: ACHN
SK-MEL-2 = test system: SK-MEL-2
OVCAR-8 = test system: OVCAR-8
SK-MEL-28 = test system: SK-MEL-28
A549 = test system: A549
SR = test system: SR
PC-3 = test system: PC-3
EKVX = test system: EKVX
RXF 393 = test system: RXF 393
SNB-19 = test system: SNB-19
T47D = test system: T47D
HT-29 = test system: HT-29
CCRF-CEM = test system: CCRF-CEM
MCF7 = test system: MCF7
HL-60 = test system: HL-60
SF-539 = test system: SF-539
SN12C = test system: SN12C
M14 = test system: M14
HCT-15 = test system: HCT-15
OVCAR-5 = test system: OVCAR-5
UO-31 = test system: UO-31
Malme-3M = test system: Malme-3M
SK-OV-3 = test system: SK-OV-3
OVCAR-4 = test system: OVCAR-4
OVCAR-3 = test system: OVCAR-3
MDA-MB-435 = test system: MDA-MB-435
HCC 2998 = test system: HCC 2998
SNB-75 = test system: SNB-75
HCT-116 = test system: HCT-116

For CCCC(CCC)C(=O)O [VALPROIC ACID], the GI50 (NCI-H522) was 3240 µM (inactive), the GI50 (A498) was 532 µM (inactive) and the GI50 (UACC-62) was 8810 µM (inactive). The GI50 (HOP-62) was > 100 µM (inactive), the GI50 (NCI-H460) was 4310 µM (inactive) and the GI50 (CAKI-1) was 7480 µM (inactive). The GI50 (BT-549) was 12200 µM (inactive), the GI50 (IGROV-1) was 5430 µM (inactive) and the GI50 (NCI-H23) was > 100 µM (inactive). The GI50 (K562) was 6810 µM (inactive), the GI50 (LOX IMVI) was 6280 µM (inactive) and the GI50 (MDA-N) was > 100 µM (inactive). For the same compound, the GI50 (SF-295) was 7760 µM (inactive), the GI50 (SK-MEL-5) was 2740 µM (inactive) and the GI50 (DU-145) was 10200 µM (inactive). For the same compound, the GI50 (HOP-92) was 9380 µM (inactive), the GI50 (TK-10) was 8240 µM (inactive) and the GI50 (U-251) was 8020 µM (inactive). The GI50 (MOLT-4) was 11200 µM (inactive), the GI50 (RPMI-8226) was 4070 µM (inactive) and the GI50 (COLO 205) was 4530 µM (inactive). For the same compound, the GI50 (SW-620) was 8530 µM (inactive), the GI50 (786-0) was > 100 µM (inactive) and the GI50 (SF-268) was 2140 µM (inactive). For the same compound, the GI50 (KM12) was 14300 µM (inactive), the GI50 (NCI/ADR-RES) was 10900 µM (inactive) and the GI50 (NCI-H226) was > 100 µM (inactive). For the same compound, the GI50 (MDA-MB-231) was 14700 µM (inactive), the GI50 (UACC-257) was 4530 µM (inactive) and the GI50 (Hs-578T) was 12100 µM (inactive). For the same compound, the GI50 (ACHN) was 5450 µM (inactive), the GI50 (SK-MEL-2) was 8000 µM (inactive) and the GI50 (OVCAR-8) was 3920 µM (inactive). The GI50 (SK-MEL-28) was > 100 µM (inactive), the GI50 (A549) was 9060 µM (inactive) and the GI50 (SR) was 8510 µM (inactive). The GI50 (PC-3) was 16900 µM (inactive), the GI50 (EKVX) was > 100 µM (inactive) and the GI50 (RXF 393) was 2570 µM (inactive). The GI50 (SNB-19) was > 100 µM (inactive), the GI50 (T47D) was 7520 µM (inactive) and the GI50 (HT-29) was 3010 µM (inactive). For the same compound, the GI50 (CCRF-CEM) was 14800 µM (inactive), the GI50 (MCF7) was 6580 µM (inactive) and the GI50 (HL-60) was 10300 µM (inactive). The GI50 (SF-539) was 15200 µM (inactive), the GI50 (SN12C) was > 100 µM (inactive) and the GI50 (M14) was > 100 µM (inactive). For the same compound, the GI50 (HCT-15) was 8090 µM, the GI50 (OVCAR-5) was > 100 µM (inactive) and the GI50 (UO-31) was 6280 µM (inactive). The GI50 (Malme-3M) was 4400 µM (inactive), the GI50 (SK-OV-3) was > 100 µM (inactive) and the GI50 (OVCAR-4) was 3720 µM (inactive). The GI50 (OVCAR-3) was 12900 µM (inactive), the GI50 (MDA-MB-435) was 10900 µM (inactive) and the GI50 (HCC 2998) was 5710 µM (inactive). The GI50 (SNB-75) was 6150 µM (inactive) and the GI50 (HCT-116) was 9730 µM (inactive).
With N=C(N)SCc1ccc2c(c1)Sc1ccccc1O2 the GI50 (NCI-H522) was 1.44 µM (inactive), the GI50 (A498) was 15.6 µM (inactive) and the GI50 (UACC-62) was 4.62 µM (inactive). For the same compound, the GI50 (HOP-62) was 14.1 µM (inactive), the GI50 (NCI-H460) was 6.79 µM (inactive) and the GI50 (CAKI-1) was 6.46 µM (inactive). For the same compound, the GI50 (BT-549) was 3.62 µM (inactive), the GI50 (IGROV-1) was 3.34 µM (inactive) and the GI50 (NCI-H23) was 6.5 µM (inactive). For the same compound, the GI50 (K562) was 6.03 µM (inactive), the GI50 (LOX IMVI) was 6 µM (inactive) and the GI50 (MDA-N) was 3.93 µM (inactive). For the same compound, the GI50 (SF-295) was 10.5 µM (inactive), the GI50 (SK-MEL-5) was 1.57 µM (inactive) and the GI50 (DU-145) was 8.69 µM (inactive). For the same compound, the GI50 (HOP-92) was 6.31 µM (inactive), the GI50 (TK-10) was 5.11 µM (inactive) and the GI50 (U-251) was 18.4 µM (inactive). The GI50 (MOLT-4) was 7.71 µM (inactive), the GI50 (RPMI-8226) was 8.05 µM (inactive) and the GI50 (COLO 205) was 2.36 µM (inactive). The GI50 (SW-620) was 5.85 µM (inactive), the GI50 (786-0) was 4.76 µM (inactive) and the GI50 (SF-268) was 13.1 µM (inactive). The GI50 (KM12) was 5.32 µM (inactive), the GI50 (NCI/ADR-RES) was 6.65 µM (inactive) and the GI50 (NCI-H226) was 11.2 µM (inactive). For the same compound, the GI50 (MDA-MB-231) was 10.3 µM (inactive), the GI50 (UACC-257) was 5.82 µM (inactive) and the GI50 (Hs-578T) was 4.56 µM (inactive). For the same compound, the GI50 (ACHN) was 4.47 µM (inactive), the GI50 (SK-MEL-2) was 5.12 µM (inactive) and the GI50 (OVCAR-8) was 10.6 µM (inactive). The GI50 (SK-MEL-28) was 13.6 µM (inactive), the GI50 (A549) was 6.73 µM (inactive) and the GI50 (SR) was 5.78 µM (inactive). For the same compound, the GI50 (PC-3) was 4.74 µM (inactive), the GI50 (EKVX) was 11.6 µM (inactive) and the GI50 (RXF 393) was 3.61 µM (inactive). The GI50 (SNB-19) was 11.4 µM (inactive), the GI50 (T47D) was 8.07 µM (inactive) and the GI50 (HT-29) was 2.9 µM (inactive). For the same compound, the GI50 (CCRF-CEM) was 6.78 µM (inactive), the GI50 (MCF7) was 4.53 µM (inactive) and the GI50 (HL-60) was 4.57 µM (inactive). The GI50 (SF-539) was 2.07 µM (inactive), the GI50 (SN12C) was 8.95 µM (inactive) and the GI50 (M14) was 2.16 µM (inactive). For the same compound, the GI50 (HCT-15) was 3.33 µM, the GI50 (OVCAR-5) was 11.6 µM (inactive) and the GI50 (UO-31) was 3.37 µM (inactive). For the same compound, the GI50 (Malme-3M) was 11.1 µM (inactive), the GI50 (SK-OV-3) was 12.9 µM (inactive) and the GI50 (OVCAR-4) was 6.87 µM (inactive). The GI50 (OVCAR-3) was 4.69 µM (inactive), the GI50 (MDA-MB-435) was 3.78 µM (inactive) and the GI50 (HCC 2998) was 2.35 µM (inactive). For the same compound, the GI50 (SNB-75) was 5.65 µM (inactive) and the GI50 (HCT-116) was 5.86 µM (inactive).
